Measurements as given in US8841312B2, “Fused pyridine, pyrimidine and triazine compounds as cell cycle inhibitors” (Amgen Inc., priority 2007, dated 2014).
pIC50: −log10 of the molar value.

Tests used:
Cdk6/CyclinD3 = Cdk6/CyclinD3 (Homo sapiens (Human), UniProt Q00534); assay: Cdk6 kinase inhibition assay with recombinant Cdk6/CyclinD3, Rb substrate, [33P]-ATP filter plate; assay type: biochemical; details: 25 μM ATP, read-out: Cdk 6 IC50
Method: The Cdk4 and Cdk6 inhibitory activity of the compounds is measured with a kinase inhibition assay using recombinant Cdk4/CyclinD1 or Cdk6/CyclinD3 protein complexes. The protein substrate used in the assay is the retinoblastoma protein (Rb). The kinase reactions are carried out in a 96-well filter plate (MSDV N6B50, Millipore). […] The mixture is incubated at room temperature for 1 hour and the proteins precipitated with an equal volume of 20% TCA. The plates are washed with 10% TCA according to the manufacturer's instruction and dried at room temperature. The amount of the phosphorylated Rb is determined with a TopCount (PerkinElmer). The IC50 of a compound is determined by nonlinear regression curve fitting using software program Prism 5 (GraphPad Software).

Cdk4/CyclinD1 = Cdk4/CyclinD1 (Homo sapiens (Human), UniProt P11802); assay: Cdk4 kinase inhibition assay with recombinant Cdk4/CyclinD1, Rb substrate, [33P]-ATP filter plate; assay type: biochemical; details: 25 μM ATP, read-out: Cdk 4 IC50
Procedure, shortened: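 Recombinant Cdk4/CyclinD1 or Cdk6/CyclinD3 phosphorylated Rb protein with [33P]-ATP for 1 h at room temperature. Protein was TCA-precipitated on filter plates and bound radioactivity counted. IC50 by nonlinear regression.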

Sequence of Cdk6/CyclinD3 (Q00534 whole entry): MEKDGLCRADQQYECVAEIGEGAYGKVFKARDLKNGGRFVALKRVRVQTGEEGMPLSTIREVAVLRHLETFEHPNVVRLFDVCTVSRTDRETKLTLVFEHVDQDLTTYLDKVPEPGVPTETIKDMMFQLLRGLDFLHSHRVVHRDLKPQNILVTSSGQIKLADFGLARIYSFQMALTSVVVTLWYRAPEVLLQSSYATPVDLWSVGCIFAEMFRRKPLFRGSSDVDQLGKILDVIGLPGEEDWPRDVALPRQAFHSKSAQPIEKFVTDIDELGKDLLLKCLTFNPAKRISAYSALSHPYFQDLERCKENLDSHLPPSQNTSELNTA
Sequence of Cdk6/CyclinD3 (P30281 whole entry partner): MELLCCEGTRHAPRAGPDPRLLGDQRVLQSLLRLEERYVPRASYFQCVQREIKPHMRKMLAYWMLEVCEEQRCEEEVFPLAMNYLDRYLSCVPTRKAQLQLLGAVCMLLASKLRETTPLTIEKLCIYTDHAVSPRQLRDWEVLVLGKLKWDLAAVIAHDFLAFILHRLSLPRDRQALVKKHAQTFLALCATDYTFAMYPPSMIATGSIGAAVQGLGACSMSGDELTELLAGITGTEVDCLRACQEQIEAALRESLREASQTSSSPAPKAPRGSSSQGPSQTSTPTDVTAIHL
Sequence of Cdk4/CyclinD1 (P11802 whole entry): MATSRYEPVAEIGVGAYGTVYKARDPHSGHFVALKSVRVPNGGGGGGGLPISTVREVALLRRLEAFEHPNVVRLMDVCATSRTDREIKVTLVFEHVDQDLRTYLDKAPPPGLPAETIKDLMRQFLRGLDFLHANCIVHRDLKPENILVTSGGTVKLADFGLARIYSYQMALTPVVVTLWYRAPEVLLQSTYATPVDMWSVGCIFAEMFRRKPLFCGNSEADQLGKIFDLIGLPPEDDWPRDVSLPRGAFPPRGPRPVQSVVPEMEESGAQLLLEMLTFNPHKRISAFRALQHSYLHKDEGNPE
Sequence of Cdk4/CyclinD1 (P24385 whole entry partner): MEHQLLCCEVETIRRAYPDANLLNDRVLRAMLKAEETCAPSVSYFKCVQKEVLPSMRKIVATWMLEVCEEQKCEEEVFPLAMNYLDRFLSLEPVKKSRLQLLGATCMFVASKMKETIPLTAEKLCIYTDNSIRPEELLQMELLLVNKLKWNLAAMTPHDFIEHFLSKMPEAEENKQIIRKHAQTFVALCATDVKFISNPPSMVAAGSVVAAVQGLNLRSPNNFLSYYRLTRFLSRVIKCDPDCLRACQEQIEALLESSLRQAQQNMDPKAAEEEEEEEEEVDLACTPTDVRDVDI

Row | pIC50 (Cdk6/CyclinD3) | pIC50 (Cdk4/CyclinD1) | SMILES
1 | 7.42 | 7.49 | COc1cc(-c2ccc(Nc3ncc4c5ccncc5n(C5CCCC5)c4n3)nn2)ccn1 [Example 262, 9-Cyclopentyl-N-(6-(2-methoxy-4-pyridinyl)-3-pyridazinyl)-9H-pyrido[4′,3′:4,5]pyrrolo[2,3-d]pyrimidin-2-amine]
2 | 8.36 | 9.08 | c1cnc2c(c1)c1cnc(Nc3ccc(N4CCNCC4)cc3)nc1n2C1CCCC1 [Example 36, (9-Cyclopentyl-9H-pyrido[3′,2′:4,5]pyrrolo[2,3-d]pyrimidin-2-yl)-(4-piperazin-1-yl-phenyl)-amine]
3 | 7.85 | 8.48 | O[C@@H]1CCCN(c2ccc(Nc3ncc4c5ccncc5n(C5CCCC5)c4n3)nn2)C1 [Example 104]
4 | 7.89 | 7.44 | c1cc2c3cnc(Nc4ccc(N5CCNCC5)cn4)nc3n(C3CCCC3)c2nn1 [Example 200, 9-Cyclopentyl-N-(5-(1-piperazinyl)-2-pyridinyl)-9H-pyrimido[5′,4′:4,5]pyrrolo[2,3-c]pyridazin-7-amine]
5 | 7.70 | 7.96 | CC[C@@H](C)n1c2cnccc2c2cnc(Nc3ccc(N4CCNC(C)(C)C4)nn3)nc21 [Example 324]
6 | 8.32 | 8.89 | OC[C@H](O)CNC1CCN(c2ccc(Nc3ncc4c5ccncc5n(C5CCCC5)c4n3)nn2)CC1 [Example 446]
7 | 7.80 | 7.77 | CCC(CC)n1c2cnccc2c2cnc(Nc3ccc(N4CCC(N(C)C)CC4)nn3)nc21 [Example 163, N-(6-(4-(Dimethylamino)-1-piperidinyl)-3-pyridazinyl)-9-(1-ethylpropyl)-9H-pyrido[4′,3′:4,5]pyrrolo[2,3-d]pyrimidin-2-amine]
8 | 7.89 | 8.12 | Fc1ccc(-n2c3cnccc3c3cnc(Nc4ccc(N5CCNCC5)cn4)nc32)cc1 [Example 15]
9 | 7.92 | 8.10 | OC[C@@H](O)CNC1CCN(c2ccc(Nc3ncc4c5ccncc5n(C5CCCC5)c4n3)nn2)CC1 [Example 481]
10 | 8.14 | 8.57 | N#Cc1ccc2c3cnc(Nc4ccc(N5CCNCC5)cn4)nc3n(C3CCCC3)c2c1 [Example 41, 9-Cyclopentyl-2-(5-piperazin-1-yl-pyridin-2-ylamino)-9H-pyrimido[4,5-b]indole-7-carbonitrile]
11 | 7.51 | 8.07 | Cn1c(=O)ccc2c3cnc(Nc4ccc(N5CCNCC5)cn4)nc3n(C3CCCC3)c21 [Example 184, 9-Cyclopentyl-8-methyl-2-((5-(1-piperazinyl)-2-pyridinyl)amino)-8,9-dihydro-7H-pyrido[3′,2′:4,5]pyrrolo[2,3-d]pyrimidin-7-one]
12 | 7.72 | 8.38 | c1cc2c3cnc(Nc4ccc(N5CCC(NC6CCC6)CC5)cn4)nc3n(C3CCCC3)c2cn1 [Example 468]
13 | 7.58 | 8.60 | c1cc2c3cnc(Nc4ccc(NCC5CCNC5)nn4)nc3n(C3CCCC3)c2cn1 (stereo not shown) [Example 98]
14 | 7.52 | 8.15 | O[C@H]1CCCN(C2CCN(c3ccc(Nc4ncc5c6ccncc6n(C6CCCC6)c5n4)nn3)CC2)C1 [Example 452]
15 | 7.92 | 8.30 | OC1CN(C2CCN(c3ccc(Nc4ncc5c6ccncc6n(C6CCCC6)c5n4)nc3)CC2)C1 [Example 474]
16 | 8.60 | 8.89 | c1ccc2c(c1)c1cnc(Nc3ccc(N4CCNCC4)cn3)nc1n2C1CCCCC1 [Example 22, (9-Cyclohexyl-9H-pyrimido[4,5-b]indol-2-yl)-(5-piperazin-1-yl-pyridin-2-yl)-amine]
17 | 7.11 | 7.06 | CC[C@@H](C)n1c2cnccc2c2cnc(Nc3ccc(N4CCNC(C)(C)C4)cn3)nc21 [Example 342]
18 | 8.25 | 8.80 | c1cc2c3cnc(Nc4ccc(N5CCCNCC5)cn4)nc3n(C3CCCC3)c2cn1 [Example 48, 9-cyclopentyl-N-(5-(1,4-diazepan-1-yl)-2-pyridinyl)-9H-pyrido[4′,3′:4,5]pyrrolo[2,3-d]pyrimidin-2-amine]
19 | 7.55 | 7.36 | CC1(C)CN(c2ccc(Nc3ncc4c5ccncc5n(C5CCC5)c4n3)nc2)CCN1 [Example 343]
20 | 8.00 | 8.80 | NC1CCN(c2ccc(Nc3ncc4c5ccncc5n(C5CCCC5)c4n3)nn2)CC1 [Example 114]

Row | pIC50 (Cdk6/CyclinD3) | pIC50 (Cdk4/CyclinD1) | SMILES
21 | 6.82 | 6.85 | CN(C)C1CCN(c2ccc(Nc3ncc4c5ccnc(F)c5n(CC5CC5)c4n3)nn2)CC1 [Example 169]
22 | 7.54 | 7.35 | C[C@@H](CO)n1c2cnccc2c2cnc(Nc3ccc(N4CCNCC4)cn3)nc21 [Example 369]
23 | 8.82 | 8.80 | O[C@@H]1CCN(c2ccc(Nc3ncc4c5ccncc5n(C5CCCC5)c4n3)nn2)C1 [Example 18, (R)-9-cyclopentyl-N-(6-(3-hydroxypyrrolidin-1-yl)-3-pyridazinyl)-9H-pyrido[4′,3′:4,5]-pyrrolo[2,3d]pyrimidin-2-amine]
24 | 7.61 | 8.40 | c1cc2c3cnc(Nc4ccc(N5CCOCC5)nn4)nc3n(C3CCCC3)c2cn1 [Example 106]
25 | 7.96 | 8.72 | C[C@H](CO)NC1CCN(c2ccc(Nc3ncc4c5ccncc5n(C5CCCC5)c4n3)nn2)CC1 [Example 444]
26 | 8.21 | 8.44 | c1cc2c3cnc(Nc4nc(CN5CCNCC5)cs4)nc3n(C3CCCC3)c2cn1 [Example 164, 9-Cyclopentyl-N-(4-(1-piperazinylmethyl)-1,3-thiazol-2-yl)-9H-pyrido-[4′,3′:4,5]pyrrolo[2,3-d]pyrimidin-2-amine]
27 | 7.66 | 7.92 | COc1nccc2c3cnc(Nc4ccc(N5CCNCC5)cn4)nc3n(C3CCCC3)c12 [Example 52, 9-cyclopentyl-8-(methyloxy)-N-(5-(1-piperazinyl)-2-pyridinyl)-9H-pyrido[4′,3′:4,5]-pyrrolo[2,3-d]pyrimidin-2-amine]
28 | 7.71 | 8.36 | c1cc2c3cnc(Nc4ccc(N5CCCC5)nn4)nc3n(C3CCCC3)c2cn1 [Example 111]
29 | 7.85 | 8.33 | CCCNC1CCN(c2ccc(Nc3ncc4c5ccncc5n(C5CCCC5)c4n3)nc2)CC1 [Example 466]
30 | 7.46 | 7.40 | O=S1(=O)CCC(c2ccc(Nc3ncc4c5ccncc5n(C5CCCC5)c4n3)nc2)CC1 [Example 270, 9-Cyclopentyl-N-(5-(1,1-dioxidotetrahydro-2H-thiopyran-4-yl)-2-pyridinyl)-9H-pyrido[4′,3′:4,5]pyrrolo[2,3-d]pyrimidin-2-amine]
31 | 8.89 | 8.85 | c1cc2c3cnc(Nc4ccc(N5CCNCC5)nc4)nc3n(C3CCCC3)c2cn1 [Example 7, 9-cyclopentyl-N-(6-(1-piperazinyl)-3-pyridinyl)-9H-pyrido[4′,3′:4,5]pyrrolo[2,3-d]pyrimidin-2-amine]
32 | 7.80 | 8.44 | CCC(CC)n1c2cnccc2c2cnc(Nc3ccc(N4CCNCC4)cn3)nc21 [Example 161, 9-(1-Ethylpropyl)-N-(5-(1-piperazinyl)-2-pyridinyl)-9H-pyrido[4′,3′:4,5]pyrrolo[2,3-d]pyrimidin-2-amine]
33 | 8.12 | 8.19 | OCCC1CCN(c2ccc(Nc3ncc4c5ccnc(F)c5n(C5CCCC5)c4n3)nc2)CC1 [Example 190, 2-(1-(6-((9-Cyclopentyl-8-fluoro-9H-pyrido[4′,3′:4,5]pyrrolo[2,3-d]pyrimidin-2-yl)amino)-3-pyridinyl)-4-piperidinyl)ethanol]
34 | 7.92 | 8.38 | OCCNC1CCN(c2ccc(Nc3ncc4c5ccncc5n(C5CCCC5)c4n3)nn2)CC1 [Example 438]
35 | 8.04 | 8.31 | O=S1(=O)CCN(c2ccc(Nc3ncc4c5ccncc5n(C5CCCC5)c4n3)nn2)CC1 [Example 94]
36 | 6.59 | 6.90 | c1cc2c3cnc(Nc4ccc(N5CCNCC5)cn4)cc3n(Cc3ccsc3)c2cn1 [Example 235, N-(5-(1-piperazinyl)-2-pyridinyl)-5-(3-thiophenylmethyl)-5H-pyrido[3′,4′:4,5]pyrrolo[2,3-c]pyridin-3-amine]
37 | 7.77 | 8.07 | O[C@H]1CCN(Cc2csc(Nc3ncc4c5ccncc5n(C5CCCC5)c4n3)n2)C1 [Example 165, (3S)-1-((2-((9-Cyclopentyl-9H-pyrido[4′,3′:4,5]pyrrolo[2,3-d]pyrimidin-2-yl)amino)-1,3-thiazol-4-yl)methyl)-3-pyrrolidinol]
38 | 6.40 | 6.47 | COCCn1c2cnccc2c2cnc(Nc3ccc(N4CCNCC4)nn3)nc21 [Example 313]
39 | 5.00 | 5.00 | c1cc(Nc2ncc3c4sncc4n(C4CCCC4)c3n2)ncc1N1CCNCC1 [Example 168, 4-Cyclopentyl-N-(5-(1-piperazinyl)-2-pyridinyl)-4H-isothiazolo[5′,4′:4,5]pyrrolo[2,3-d]pyrimidin-6-amine]

Row | SMILES | pIC50 (Cdk6/CyclinD3) | pIC50 (Cdk4/CyclinD1)
40 | CN(C)C1CC2CCC(C1)N2c1ccc(Nc2ncc3c4ccncc4n(C4CCCC4)c3n2)nc1 (stereo not shown) [Example 158, 9-cyclopentyl-N-(5-(3-(dimethylamino)-8-azabicyclo[321]oct-8-yl)-2-pyridinyl)-9H-pyrido[4′,3′:4,5]pyrrolo[2,3-d]pyrimidin-2-amine] | 8.28 | 8.27
41 | FCCNC1CCN(c2ccc(Nc3ncc4c5ccncc5n(C5CCCC5)c4n3)nc2)CC1 [Example 467] | 7.68 | 8.14
